Source: US5958906A, “Phospholipid derivatives containing higher elements of the fifth main group” (ASTA-Medica Aktiengesellschaft, priority 1992, dated 1999)
In brackets after ≈: the same amount, converted by molar mass. Counter-ions that a name gives are not always drawn.

Experiments:
KB cells [1] = assay: Soft-Agar-Colony-Assay with KB cells in vitro; assay type: cell-based; details: colony formation inhibited up to 90%, effective criterion EC90 <10 μg/ml; for IC90: Homo sapiens
Procedure: Tests with KB cells were carried out as a Soft-Agar-Colony-Assay in accordance with Salmon and Hamburger, N. Engl.
(§1) Values exceeding 100 indicate tumor regressions in relation to the starting size of the tumor. […] Values below 0 indicate that the tumor growth was stimulated. KB in vivo represents a tumor model in which KB cells are transplanted subcutaneously into naked NMRI mice. DMBA in vivo represents a tumor model in which tumors of the milk inguinal were induced chemically in female test rats by administering Dimethylbenzanthracen (DMBA). EC90 values which exceed 10 are considered ineffective.

KB cells [2] = assay: KB in vivo: KB cells transplanted subcutaneously into naked NMRI mice, growth inhibition index; details: orally, >100 = tumor regression
Procedure: (§2) The substances were administered orally in solution with the help of an esophagus probe (respective dosages in parenthesis).
(§3) Indicated is the growth inhibition index (Wachstumshemmungsindex WHI) in percent which was reached and which can be calculated as follows: [formula] with WC =median tumor weight difference in the reference group based on day 0
(§4) Wt =corresponding value for the treated group
as §1

[3] = system: Leishmania mexicana (promastigotes); assay: Inhibiting effect on Leishmania mexicana (promastigotes); assay type: cell-based; details: partially mean values of two values
Procedure: Tests measuring the inhibiting effect on Leishmania mexicana (promastigotes) were conducted in accordance with the procedures set forth in R. F. Stieger et al., European Journal of Biochemistry, Vol.105 (1980), pp.163-175 and D. T. Hardt, and F. R. Opperdoes, Molecular and Biochemical Parasitology Vol. 113 (1984), pp. 159-172.
Inhibiting effect on Leishmania mexicana (promastigotes),
indicated as EC90 values (partially mean values of two values)

[4] = system: tumors of the milk inguinal induced by Dimethylbenzanthracen (DMBA); assay: DMBA in vivo: tumors of the milk inguinal induced chemically by Dimethylbenzanthracen, growth inhibition index; design: species or system female test rats; details: orally, >100 = tumor regression
Procedure: as §2, §3, §4, §1

[5] = LD50 on single administration per os in the mouse; details: in vivo, po
L1210-cell = L1210-cell culture experiment; assay type: cell-based; details: 90% growth inhibition in vitro vs control
Text: The EC90 is the concentration of an anti-tumor substance in μg/ml which inhibits the growth of cancer cells by 90% in vitro compared to a control experiment without addition of the anti-tumor substance.

Compound | EC90 (KB cells in vitro) (KB cells [1]) | IC90 (KB cells [1]) [µg/mL] | further results
CCCCCCCCCCCCC1CCC(COP(=O)([O-])OCC[As+](C)(C)C)CC1 (stereo not drawn) [Example 23, 2-[[(4'-Dodecylcyclohexyl)methyloxy)hydroxyphosphinyl]oxy]As,As,As-trimethylethyl arsonium inner salt] | > 10 µg/mL |  | 
CCCCCCCCCCCCCCCCOP(=O)([O-])OCCC[As+](C)(C)C [Example 11, 3-[[(Hexadecyloxy)hydroxyphosphinyl]oxy]-As,As,As-trimethyl propylarsonium inner salt] | > 10 µg/mL |  | 
CCCCCCCCCCCCCCCCCOP(=O)([O-])OCC[As+](C)(C)C [Example 20, 2-[[(Heptadecyloxy)hydroxyphosphinyl]oxy]-As,As,As-trimethylethyl arsonium inner salt] | 3.2 µg/mL |  | 
CCCCCCCCCCCCCCCCOP(=O)([O-])OCC[As+](CC)(CC)CC [Example 8, 2-[[(Hexadecyloxy)hydroxyphosphinyl]oxy]-As,As,As-tri-ethyl ethyl arsonium inner salt] | > 10 µg/mL |  | 
CCCCCCCCCCCCCCCCCCOP(=O)([O-])OCCC[As+](C)(C)C [Example 10, 3-[[(Octadecyloxy)hydroxyphosphinyl]oxy]-As,As,As-trimethyl propylarsonium inner salt] | 5.8 µg/mL |  | WHI (KB in vivo), growth inhibition index (KB cells [2]; 2 × 316 mg/kg): 104%
CCCCCCCCCCCCCCCCCCOP(=O)([O-])OCC[As+](CC)(CC)CC [Example 7, 2-[[(Octadecyloxy)hydroxyphosphinyl]oxy]-As,As,As-triethyl ethyl arsonium inner salt] | 3.0 µg/mL |  | 
CCCCCCCCCCCCCCCCCCOP(=O)([O-])OCC[P+](CC)(CC)c1ccccc1 [Example 21, 2-[[(Octadecyloxy)hydroxyphosphinyl]oxy]-P,P-diethyl-P-phenyl-ethyl phosphonium inner salt] |  | 3.1 | 
CCCCCCCCCCCCCCCCCCOCC(COP(=O)([O-])OCC[P+](C)(C)C)OC (racemic) [Example 25] |  | 2.7 (≈ 4.99 µM) | EC90 ([3]; Leishmania mexicana): 1.8 µg/mL; EC90 ([3]; Leishmania mexicana, molar): 3300 ± 370 nM
CCCCCCCC/C=C\CCCCCCCCCCCCOP(=O)([O-])OCC[P+](CC)(CC)c1ccccc1 [Example 22, 2-[[(Cis-13-docosenyloxy)hydroxyphosphinyl]oxy]-P,P-diethyl P-phenyl-ethyl phosphonium inner salt] |  | 3.1 | 
CCCCCCCC/C=C\CCCCCCCCCCCCOP(=O)([O-])OCCC[P+](C)(C)C [Example 13, 3-[[(Cis-13-docosenyloxy)hydroxyphosphinyl]oxy]-P,P,P-tri-methylpropyl phosphonium inner salt] |  | > 10 | 
CCCCCCCC/C=C\CCCCCCCCCCCCOP(=O)([O-])OCC[As+](CC)(CC)CC [Example 9, 2-[[Cis-13-docosenyloxy)hydroxyphosphinyl]oxy]-As,As,As-triethylethyl arsonium inner salt] | > 10 µg/mL |  | 
CCCCCCCCCCCCCCCCCCCCOP(=O)([O-])OCC[As+](C)(C)C [Example 19, 2-[[(Eicosyloxy)hydroxyphosphinyl]oxy]-As,As,As-trimethylethyl arsonium inner salt] | insoluble |  | 
CCCCCCCCCCCCCCCCCCCOP(=O)([O-])OCC[As+](C)(C)C [Example 18, 2-[[(Nonadecyloxy)hydroxyphosphinyl]oxy]-As,As,As-trimethethyl arsonium inner salt] | 3.0 µg/mL |  | 
CCCCCCCCCCCCCCCCCCOCC(COP(=O)([O-])OCC[As+](C)(C)C)OC (racemic) [Example 24, 1-0-Octadecyl-2-0-methyl-rac-glycerophosphoarsenocholine] | 2.8 µg/mL |  | EC90 inhibiting effect on Leishmania mexicana (promastigotes) [3]: 0.9 µg/mL; EC90 ([3]; molar): 1500 nM; WHI (DMBA in vivo), growth inhibition index ([4]; 4 × 100 mg/kg): 73%
CCCCCCCCCCCCCCCCCCOP(=O)([O-])OCCC[P+](C)(C)C [Example 14, 3-[[(Octadecyloxy)hydroxyphosphinyl]oxy]-P,P,P-trimethylpropyl phosphonium inner salt] |  | 3 | 
CCCCCCCCCCCCCCCCCCCCOP(=O)([O-])OCC[P+](C)(C)C [Example 17, 3-[[(Eicosyloxy)hydroxyphosphinyl]oxy]-P,P,P-trimethylethyl phosphonium inner salt] |  | 3 | 
CCCCCCCC/C=C\CCCCCCCCCCCCOP(=O)([O-])OCCC[As+](C)(C)C [Example 12, 3-[[(Cis-13-docosenyloxy)hydroxyphosphinyl]oxy]-As,As,As-trimethylpropyl arsonium inner salt] | > 10 µg/mL |  | 
CCCCCCCCCCCCCCCCCCOP(=O)([O-])OCC[P+](C)(C)C [Example 4, 2-[[(octadecyloxy)hydroxyphosphinyl]oxy]-P,P,P-trimethyl ethyl phosphonium inner salt] |  | 3.1 | EC90 ([3]; Leishmania mexicana): 0.8 µg/mL; EC90 ([3]; Leishmania mexicana, molar): 1800 ± 220 nM; WHI (DMBA in vivo), growth inhibition index ([4]; 4 × 147 mg/kg): 108.7%; WHI (KB in vivo), growth inhibition index (KB cells [2]; 2 × 316 mg/kg): 111%
CCCCCCCCCCCCCCCCOP(=O)([O-])OCCC[P+](C)(C)C [Example 15, 3-[[(Hexadecyloxy)hydroxyphosphinyl]oxy]-P,P,P-trimethylpropyl phosphonium inner salt] |  | > 10 | 
CCCCCCCC/C=C\CCCCCCCCCCCCOP(=O)([O-])OCC[As+](C)(C)C [Example 3, 2-[[(cis-13-docosenyloxy)hydroxyphosphinyl]oxy-As,As,As-trimethylethylarsoniuminner salt] | > 10 µg/mL |  | LD50 [5]: > 1470 mg/kg
CCCCCCCCCCCCCCCCOP(=O)([O-])OCC[P+](C)(C)C [Example 5, 2-[[(hexadecyloxy)hydroxyphosphinyl]oxy]-P,P,P-trimethyl ethyl phosphonium inner salt] |  | > 10 | 
CCCCCCCCCCCCCCCCCCOP(=O)([O-])OCC[As+](C)(C)C [Example 1, 2-[[(Octadecyloxy)hydroxyphosphenyl]oxy]-As,As,As-trimethyl ethyl arsonium inner salt] | 3.2 µg/mL |  | EC90 inhibiting effect on Leishmania mexicana (promastigotes) [3]: 0.8 µg/mL; EC90 ([3]; molar): 1800 nM; WHI (DMBA in vivo), growth inhibition index ([4]; 4 × 100 mg/kg): 112.8%; EC90 (L1210-cell): 2.9 µg/mL; WHI (KB in vivo), growth inhibition index (KB cells [2]; 1 × 511 mg/kg): 42.9%
CCCCCCCC/C=C\CCCCCCCCCCCCOP(=O)([O-])OCC[P+](C)(C)C [Example 6, 2-[[(Cis-13-docosenyloxy) hydroxyphosphinyl]oxy]-P,P,P-trimethylethyl phosphonium inner salt] |  | > 10 | WHI (DMBA in vivo), growth inhibition index ([4]; 4 × 147 mg/kg): 43.9%
CCCCCCCCCCCCCCCCCCCOP(=O)([O-])OCC[P+](C)(C)C [Example 16, 3-[[(Nonadecyloxy)hydroxyphosphinyl]oxy]-P,P,P-trimethyl-ethyl phosphonium inner salt] |  | 2.6 | 
CCCCCCCCCCCCCCCCOP(=O)([O-])OCC[As+](C)(C)C [Example 2, 2-[[(hexadecyloxy)hydroxyphosphinyl]oxy]-As,As,As-trimethyl ethyl arsonium inner salt] | 27 µg/mL |  | 
